Read-outs that look alike come from different tables or passages of the source.
System: rat
Assay: Randall-Selitto test in rats (Carrageenin-induced oedema, model for inflammatory pain), with isobolographic analysis of fixed ratio combinations
Type: in vivo
Conditions: for ED50: Rattus norvegicus, confidence interval in brackets; for timepoint of peak effect: substance applied alone, A i.v., NSAIDs i.p.
Description: The weight ratios of the components (a) and (b) that will lead to a supra-additive effect (synergistic effect) of the inventive pharmaceutical composition may be determined via the test of Randall and Selitto as described in Arch. Int. Pharmacodyn., 1957, 111: 409 to 419, which is a model for inflammatory pain. The respective part of the literature is hereby incorporated by reference and forms part of the present disclosure.
By means of injection of 0.1 ml of Carrageenin-suspension ventrally into a hind paw of a rat an oedema is induced, on which pain is generated 4 hours later by continuously increasing pressure with a stamp (2 mm tip diameter). The antinociceptive and antihyperalgesic activity of the tested substance is determined at different points in time after administration of the substance. The measured value to be determined and at the same time also the end point of the pain test is the pressure at which the vocalisation reaction of the rat occurs. The percentage maximum possible effect (% MPE) is calculated. The maximum pressure of the stamp is 250 g. The group size is n=10.
The interactions studies presented herein were performed using equieffective doses of the two components, calculated from the ratio of the respective ED50 values of the components if administered alone.
The application route was intravenous (i.v.) for (1R,2R)-3-(3-Dimethylamino-1-ethyl-2-methyl-propyl)-phenol (A) and intraperitoneal (i.p.) for the NSAIDs Diclofenac-sodium and Ibuprofen. […] According to their respective timepoint of peak effect, (1R,2R)-3-(3-Dimethylamino-1-ethyl-2-methyl-propyl)-phenol was applied 15 min and Diclofenac-Sodium and Ibuprofen 30 min before timepoint of measurement of the interaction-experiments (i. e. Diclofenac-Sodium or Ibuprofen were applied 15 min before (1R,2R)-3-(3-Dimethylamino-1-ethyl-2-methyl-propyl)-phenol, respectively). Thus, the time point of ED50 calculation of the combination corresponds to the timepoint of the peak effect of the respective compound.
The application route was intravenous (i.v.) for (1R,2R)-3-(3-Dimethylamino-1-ethyl-2-methyl-propyl)-phenol (A) and intraperitoneal (i.p.) for the NSAIDs (+)-Naproxen, Ketoprofen and Metamizol-Sodium. […] According to their respective timepoint of peak effect, (1R,2R)-3-(3-Dimethylamino-1-ethyl-2-methyl-propyl)-phenol was applied 15 min and (+)-Naproxen, Ketoprofen and Metamizol-Sodium 45 min before timepoint of measurement of the interaction-experiments (i. e. (+)-Naproxen, Ketoprofen and Metamizol-Sodium were applied 30 min before (1R,2R)-3-(3-Dimethylamino-1-ethyl-2-methyl-propyl)-phenol, respectively). Thus, the time point of ED50 calculation of the combination corresponds to the timepoint of the peak effect of the respective compound.

[1] = ip, 0.5 h, study A, i.p., 30 min p. appl. (peak effect), read-out: ED50 of the NSAID applied alone
[2] = ip, 0.75 h, study B, i.p., 45 min p. appl. (peak effect), read-out: ED50 of the NSAID applied alone

| SMILES | ED50 (iv, 0.25 h, read-out: ED50 of A applied alone, study A, i.v., 15 min p. appl. (peak effect)) | ED50 (iv, 0.25 h, read-out: ED50 of A applied alone, study B, i.v., 15 min p. appl. (peak effect)) | ED50 [1] | analgesic effect of the NSAID applied alone (i.p.) | timepoint of peak effect | ED50 [2] |
| --- | --- | --- | --- | --- | --- | --- |
| CC[C@@H](c1cccc(O)c1)[C@@H](C)CN(C)C [A, (1R,2R)-3-(3-Dimethylamino-1-ethyl-2-methyl-propyl)-phenol] | 1.88 mg/kg | 1.88 mg/kg | – | – | – | – |
| O=C(O)Cc1ccccc1Nc1c(Cl)cccc1Cl [Diclofenac-Sodium] | – | – | 145 mg/kg | dose-dependent analgesic effects | 30 min p. appl. | – |
| CC(C)Cc1ccc(C(C)C(=O)O)cc1 (centres unmarked) [Ibuprofen, 2-(4-Isobutylphenyl)propanoic acid] | – | – | 139 mg/kg | dose-dependent analgesic effects | 30 min p. appl. | – |
| CC(C(=O)O)c1cccc(C(=O)c2ccccc2)c1 (centres unmarked) [Ketoprofen, 2-(3-Benzoylphenyl)propanoic acid] | – | – | – | dose-dependent analgesic effects | 45 min p. appl. | 224 mg/kg |
| CC1C(N(C)CS(=O)(=O)[O-])C(=O)N(c2ccccc2)N1C.[Na+] (centres unmarked) [Metamizol-Sodium, Sodium ((1,5-dimethyl-3-oxo-2-phenylpyrazolidin-4-yl)(methyl)amino)methanesulfonate] | – | – | – | dose-dependent analgesic effects | 45 min p. appl. | 88.1 mg/kg |
